The EC50 is the midpoint of the concentration-response curve.

We go through 34 compounds from patent US20240327393A1 (SIRONAX LTD., priority 2021, published 2024).

The first assay deals with HT-1080 (ATCC, CCL-121) cells. Put plainly: HT-1080 cell viability assay with ferroptosis inducer RSL3 (Cell Titer-Glo). To be noted: Homo sapiens; HT-1080 cells treated with RSL3; 3-fold, 10-point dilution, 1.1 μM highest concentration; Table 2; read-out: EC50 (nM), ferroptosis inhibitory activity. The format is cell-based. As for the experimental part: Example 2. Determination of EC50 Values in HT-1080 Cell Viability Assay
HT-1080 (ATCC, CCL-121) cells (6000 in 100 μl) were seeded in 96-well plates (Corning) and cultured in a 37° C. incubator with a humidified atmosphere of 5% CO2 for overnight. Cells were then treated with ferroptosis inducer RSL3 (TargetMol) and a 3-fold, 10-point serial dilution series of compounds with 1.1 μM as the highest concentration, […]. Cell viability was assessed using the Cell Titer-Glo Kit (Promega). The luminescence intensity was measured with a microplate reader (Envision, PerkinElmer), and cell viability was calculated by normalizing the data to untreated controls. The EC50 values of the compounds (e.g., Compounds 1-659) were calculated in GraphPad Prism (GraphPad Software, Inc., San Diego, CA, USA). The curves were fitted using a non-linear regression model with a sigmoidal dose response.
(In general: ATP-based viability assays read luminescence as a measure of living cells.)
For `CNc1cc(Nc2ccc3c(c2)OCC(=O)N3C)ccc1N1CC(C)OC(C)C1` (stereo not shown) [Compound 19, 7-((4-(2,6-dimethylmorpholino)-3-(methylamino)phenyl)amino)-4-methyl-2H-benzo[b][1,4]oxazin-3(4H)-one], the EC50 was in the range of 0.1 to 100 nM.

`CN1C(=O)COc2cc(Nc3cnc(N4CCC(C(F)(F)F)CC4)nc3)ccc21` [Compound 58, 4-methyl-7-((2-(4-(trifluoromethyl)piperidin-1-yl)pyrimidin-5-yl)amino)-2H-benzo[b][1,4]oxazin-3(4H)-one]: the EC50 lay in the range of 0.1 to 100 nM.

With `CN1C(=O)COc2cc(Nc3ccc(N4CC5(CCC5)C4)cc3)ccc21` [Compound 21, 7-((4-(2-azaspiro[3.3]heptan-2-yl)phenyl)amino)-4-methyl-2H-benzo[b][1,4]oxazin-3(4H)-one], the 50% effective concentration (EC50) fell in the range of 0.1 to 100 nM.

Take `COc1c(Nc2ccc(N3CCC(C(F)(F)F)CC3)cc2)ccc2c1CN(C)C2=O` [Compound 301, 4-methoxy-2-methyl-5-((4-(4-(trifluoromethyl)piperidin-1-yl)phenyl)amino)isoindolin-1-one]: the EC50 lay within 0.1 to 100 nM.

For the compound `CC1CCN(c2ccc(Nc3ccc4c(c3)n(C)c(=O)n4C)cc2)CC1` [Compound 287, 1,3-dimethyl-5-((4-(4-methylpiperidin-1-yl)phenyl)amino)-1,3-dihydro-2H-benzo[d]imidazol-2-one], the EC50 is 0.1 to 100 nM.

Regarding `COCCOCCN(C)c1ccc(Nc2ccc3c(c2)n(C)c(=O)n3C)cc1` [Compound 369, 5-((4-((2-(2-methoxyethoxy)ethyl)(methyl)amino)phenyl)amino)-1,3-dimethyl-1,3-dihydro-2H-benzo[d]imidazol-2-one], the EC50 was in the range of 100 to 1000 nM.

`CC1CCN(c2ccc(Nc3ccc4c(c3)n(C)c(=O)n4C)cn2)CC1` [Compound 276, 1,3-dimethyl-5-((6-(4-methylpiperidin-1-yl)pyridin-3-yl)amino)-1,3-dihydro-2H-benzo[d]imidazol-2-one]: the concentration giving a half-maximal response (EC50) fell in the range of 0.1 to 100 nM.

For the compound `NC(=O)NCCN1C(=O)COc2cc(Nc3ccc(N4CCC(C(F)(F)F)CC4)cc3)ccc21` [Compound 40, 1-(2-(3-oxo-7-((4-(4-(trifluoromethyl)piperidin-1-yl)phenyl)amino)-2,3-dihydro-4H-benzo[b][1,4]oxazin-4-yl)ethyl)urea], the EC50 lay within 0.1 to 100 nM.

For `CC1CCN(c2ccc(Nc3ccc4c(c3)n(C)c(=O)n4C)cc2F)CC1` [Compound 283, 5-((3-fluoro-4-(4-methylpiperidin-1-yl)phenyl)amino)-1,3-dimethyl-1,3-dihydro-2H-benzo[d]imidazol-2-one], the EC50 was in the range of 0.1 to 100 nM.

Consider `CC1CN(c2ccc3cc(Nc4ccc5c(c4)OCC(=O)N5C)ccc3c2)CC(C)O1` (stereo not shown) [Compound 71, 7-((6-(2,6-dimethylmorpholino)naphthalen-2-yl)amino)-4-methyl-2H-benzo[b][1,4]oxazin-3(4H)-one], for which the EC50 was in the range of 0.1 to 100 nM.

`CN1Cc2cc(Nc3cccc(N(C)C)c3)ccc2C1=O` [Compound 234, 5-((3-(dimethylamino)phenyl)amino)-2-methylisoindolin-1-one]: the EC50 is 0.1 to 100 nM.

Turning to `Cc1cc(N2CC(C)OC(C)C2)ccc1Nc1ccc2c(c1)OCC(=O)N2C` (stereo not shown) [Compound 51, 7-((4-(2,6-dimethylmorpholino)-2-methylphenyl)amino)-4-methyl-2H-benzo[b][1,4]oxazin-3(4H)-one], the half-maximal effective concentration (EC50) is 0.1 to 100 nM.

Consider `CC1CN(c2ccc(Nc3ccc4oc(=O)[nH]c4c3)cc2)CC(C)O1` (stereo not shown) [Compound 441, 5-((4-(2,6-dimethylmorpholino)phenyl)amino)benzo[d]oxazol-2(3H)-one], for which the EC50 lay within 0.1 to 100 nM.

For `COc1ncc(Nc2ccc3c(c2)n(C)c(=O)n3C)cn1` [Compound 319, 5-((2-methoxypyrimidin-5-yl)amino)-1,3-dimethyl-1,3-dihydro-2H-benzo[d] imidazole-2-one], the concentration for a half-maximal effect (EC50) was in the range of 0.1 to 100 nM.

In the case of `Cc1cc(N2CC(C)OC(C)C2)c(F)cc1Nc1ccc2c(c1)OCC(=O)N2C` (stereo not shown) [Compound 61, 7-((4-(2,6-dimethylmorpholino)-5-fluoro-2-methylphenyl)amino)-4-methyl-2H-benzo[b][1,4]oxazin-3(4H)-one], the 50% effective concentration (EC50) was in the range of 0.1 to 100 nM.

For the compound `CCC1Oc2cc(Nc3ccc(N4CC(C)OC(C)C4)cc3)ccc2N(C)C1=O` (stereo not shown) [Compound 81, 7-((4-(2,6-dimethylmorpholino)phenyl)amino)-2-ethyl-4-methyl-2H-benzo[b][1,4]oxazin-3(4H)-one], the EC50 was 0.1 to 100 nM.

As to `COC1(C(F)(F)F)CCN(c2ccc(Nc3ccc4c(c3)oc(=O)n4C)cc2)CC1` [Compound 386, 6-((4-(4-methoxy-4-(trifluoromethyl)piperidin-1-yl)phenyl)amino)-3-methylbenzo[d]oxazol-2(3H)-one], the concentration giving a half-maximal response (EC50) fell in the range of 0.1 to 100 nM.

As to `CC1CN(c2c(F)cc(Nc3ccc4c(c3)OCC(=O)N4)cc2F)CC(C)O1` (stereo not shown) [Compound 159, 7-((4-(2,6-dimethylmorpholino)-3,5-difluorophenyl)amino)-2H-benzo[b][1,4]oxazin-3(4H)-one], the half-maximal effective concentration (EC50) fell in the range of 0.1 to 100 nM.

On to `CCN1CCc2cc(Nc3ccccc3)ccc2C1` [Compound 105, 2-ethyl-N-phenyl-1,2,3,4-tetrahydroisoquinolin-6-amine], for which the concentration for a half-maximal effect (EC50) lay in the range of 0.1 to 100 nM.

On to `CC1CCN(c2ccc(Nc3ccc4nnn(C)c4c3)cc2)CC1` [Compound 321, 1-methyl-N-(4-(4-methylpiperidin-1-yl)phenyl)-1H-benzo[d][1,2,3]triazol-6-amine], for which the EC50 lay in the range of 0.1 to 100 nM.

In the case of `CN1C(=O)COc2cc(Nc3cc(F)c(N4CCC(O)(C(F)(F)F)CC4)c(F)c3)ccc21` [Compound 160, 7-((3,5-difluoro-4-(4-hydroxy-4-(trifluoromethyl)piperidin-1-yl)phenyl)amino)-4-methyl-2H-benzo[b][1,4]oxazin-3(4H)-one], the EC50 lay within 0.1 to 100 nM.

Take `CCNC(=O)c1cn(C)c2ccc(Nc3ccc(N4CCC(C)CC4)cc3)cc12` [Compound 365, N-ethyl-1-methyl-5-((4-(4-methylpiperidin-1-yl)phenyl)amino)-1H-indole-3-carboxamide]: the EC50 fell in the range of 0.1 to 100 nM.

For the compound `CN1C(=O)C(C)(C)c2cc(Nc3ccc(N4CCC(C(F)(F)F)CC4)cc3)ccc21` [Compound 293, 1,3,3-trimethyl-5-((4-(4-(trifluoromethyl)piperidin-1-yl)phenyl)amino)indolin-2-one], the EC50 was 0.1 to 100 nM.

Still in this assay, the particulars now being: Homo sapiens; HT-1080 cells treated with RSL3; 3-fold, 10-point dilution, 1.1 μM highest concentration; Table 3; read-out: EC50 (nM), ferroptosis inhibitory activity.
For `Cc1cc(N2CCC(C(F)(F)F)CC2)cc2c1[nH]c1cc3cnn(C(N)=O)c3cc12` [Compound 615, 6-methyl-8-(4-(trifluoromethyl)piperidin-1-yl)pyrazolo[4,3-b]carbazole-1(5H)-carboxamide], the EC50 lay within 1000 to 10000 nM.

Consider `CCC1CN(c2ccc(Nc3ccc4c(c3)CNC(=O)N4)c(C)n2)CCO1` (stereo not shown) [Compound 573, 6-{[6-(2-ethylmorpholin-4-yl)-2-methylpyridin-3-yl]amino}-3,4-dihydro-1H-quinazolin-2-one], for which the EC50 fell in the range of 0.1 to 100 nM.

With `CC1=NCC(=O)Nc2ccc(Nc3ccc(N4CCC(C(F)(F)F)CC4)cc3C)cc21` [Compound 656, 5-methyl-7-[2-methyl-4-[4-(trifluoromethyl)-1-piperidyl]anilino]-1,3-dihydro-1,4-benzodiazepin-2-one], the EC50 fell in the range of 0.1 to 100 nM.

For the compound `Cc1cc(N2CC(OC(F)(F)F)C2)ccc1Nc1ccc2c(c1)OCC(=O)N2` [Compound 621, 7-((2-methyl-4-(3-(trifluoromethoxy)azetidin-1-yl)phenyl)amino)-2H-benzo[b][1,4]oxazin-3(4H)-one], the EC50 is 0.1 to 100 nM.

On to `CC(C)(C)C(=O)NN1C(=O)COc2cc(Nc3ccc(N4CCC(C(F)(F)F)CC4)cc3)ccc21` [Compound 600, N-(3-oxo-7-((4-(4-(trifluoromethyl)piperidin-1-yl)phenyl)amino)-2,3-dihydro-4H-benzo[b][1,4]oxazin-4-yl)pivalamide], for which the concentration giving a half-maximal response (EC50) lay within 0.1 to 100 nM.

Consider `O=C1COc2cc(Nc3ccc(N4CCC(F)CC4)cc3)cnc2N1` [Compound 554, 7-((4-(4-fluoropiperidin-1-yl)phenyl)amino)-2H-pyrido[3,2-b][1,4]oxazin-3(4H)-one], for which the concentration for a half-maximal effect (EC50) lay within 0.1 to 100 nM.

Regarding `Cc1cc(N2CCC(C(F)(F)F)CC2)ccc1Nc1ccc2c(c1)NC(=O)C2(C)C` [Compound 527, 3,3-dimethyl-6-((2-methyl-4-(4-(trifluoromethyl)piperidin-1-yl)phenyl)amino)indolin-2-one], the EC50 is 0.1 to 100 nM.

Turning to `CCC1CN(c2ccc(Nc3ccc4c(c3)OCC(=O)N4)c(C)n2)CCO1` (stereo not shown) [Compound 498, 7-((6-(2-ethylmorpholino)-2-methylpyridin-3-yl)amino)-2H-benzo[b][1,4]oxazin-3(4H)-one], the concentration giving a half-maximal response (EC50) lay in the range of 0.1 to 100 nM.

Consider `Cc1cc(N2CC(O)(C(F)(F)F)C2)ccc1Nc1ccc2c(c1)OCC(=O)N2` [Compound 632, 7-({4-[3-hydroxy-3-(trifluoromethyl)azetidin-1-yl]-2-methylphenyl}amino)-2,4-dihydro-1,4-benzoxazin-3-one], for which the EC50 was in the range of 0.1 to 100 nM.

Turning to `Cc1cc(N2CC(OC(C)C)C2)ccc1Nc1ccc2c(c1)OCC(=O)N2` [Compound 640, 7-((4-(3-isopropoxyazetidin-1-yl)-2-methylphenyl)amino)-2H-benzo[b][1,4]oxazin-3(4H)-one], the EC50 is 0.1 to 100 nM.

As for `Cc1cc(N2CCC(C)CC2)ccc1Nc1ccc2c(c1)OCC(=O)N2C` [Compound 490, 4-methyl-7-((2-methyl-4-(4-methylpiperidin-1-yl)phenyl)amino)-2H-benzo[b][1,4]oxazin-3(4H)-one], the concentration for a half-maximal effect (EC50) was in the range of 0.1 to 100 nM.
